Data: PMC4752462 (PLoS ONE, 2016)
Where “and” joins values, the source holds several entries; their conditions need not be identical. Identical values can stand only once.

What was measured:
CYP3A = system: CYP3A; design: method as in PMID 21348537; conditions: read-out: IC50 for CYP3A inhibition; cited from earlier work
human recombinant CYP3A4 = target: T1, human recombinant CYP3A4 (Homo sapiens, UniProt P08684); assay: CYP3A4 inhibition, Vivid CYP450 blue screening kit with baculosomes; assay type: biochemical; conditions: for CYP3A4 activity (Fig 5 data): control = 100
T1 construct: purchased Life Technologies P2858; host or cells: baculosomes (baculovirus-infected insect cell microsomes)
T1 sequence (P08684 whole entry): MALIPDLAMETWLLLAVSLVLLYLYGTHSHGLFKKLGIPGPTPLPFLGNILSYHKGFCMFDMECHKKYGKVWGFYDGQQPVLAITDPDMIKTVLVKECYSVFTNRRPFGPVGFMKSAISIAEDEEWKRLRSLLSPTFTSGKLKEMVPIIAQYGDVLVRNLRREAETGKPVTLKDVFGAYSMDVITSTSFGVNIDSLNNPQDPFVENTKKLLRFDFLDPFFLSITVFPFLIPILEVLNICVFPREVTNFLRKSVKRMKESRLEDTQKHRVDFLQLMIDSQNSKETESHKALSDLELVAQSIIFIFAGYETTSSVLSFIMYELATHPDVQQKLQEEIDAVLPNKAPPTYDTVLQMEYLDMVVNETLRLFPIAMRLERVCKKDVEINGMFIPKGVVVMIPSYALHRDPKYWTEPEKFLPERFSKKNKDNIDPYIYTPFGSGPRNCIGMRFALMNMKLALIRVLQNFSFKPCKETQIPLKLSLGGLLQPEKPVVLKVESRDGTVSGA
Description: CYP3A4 inhibition assay was carried out by using Vivid® CYP450 Screening Kit from Life Technologies as recommended by the manufacturer (# P2858, Carlsbad, CA). This assay allows rapid measurement of interactions between drugs of interest and CYP enzymes based on their capability to inhibit the production of a fluorescent signal in reactions using CYP BACULOSOMES® Plus Reagents and specific Vivid® Substrates. Briefly, the assay was conducted in a 96-well assay plate. […] The final concentrations of 2.5, 5, 7.5, 10, 25, 50, 75, and 100 μM were achieved by diluting the stocks in 1X Vivid® CYP reaction buffer. […] For ethanol only experiment, 2.5, 5, […], 20, 30, and 50 mM final concentrations were used. The final concentration of acetonitrile in each reaction was 0.01% in 100 μl final reaction volume. The fluorescence was immediately measured using a microplate reader (Cytation™ 5 Cell Imaging Multi-Mode Reader, BioTek, VT) at the 415/460 nm excitation and emission wavelengths.
The concentrations of all the drugs were quantified using Ab Sciex Analyst® software. Microsomal kinetic data were analyzed using Michaelis-Menten and exponential decay equations. CYP3A4 inhibition data were evaluated by fitting the values to dose-response inhibition and calculated IC50 values were reported. All graphs were plotted and two-tailed t-tests were performed wherever appropriate using GraphPad Prism 5.01 (GraphPad, San Diego, CA). Significant differences between more than two groups analyzed with one-way ANOVA followed by Dunnett’s multiple comparison tests using IBM SPSS […] version 20. A p value <0.05 was considered significant compared to respective controls. The original data and/or statistical analyses for Michaelis-Menten Kinetics, drug metabolism and half-life determination, inhibition studies, and ligand docking are provided in the supporting information (S1 file).

human liver microsomes = assay: in vitro; assay type: in vitro ADME; conditions: for EVG remaining: human, microsomes, 4 μM, pH 7.4
Description: (§1) The reaction was carried out using human liver microsomes in 0.1 M potassium phosphate buffer at pH 7.4 as described previously. […] After pre-incubation at 37°C for 10 minutes, 3 mM final concentration of NADPH was added to initiate the metabolic reaction. After 7 minutes incubation at 37°C the reactions were terminated by adding 1:3 volumes of cold acetonitrile. For the time kinetic study, the reaction was terminated at various time points (0.0, 2.5, 5, 10, 15, 20, 30, and 60 minutes). […] The Prior to LCMS/MS analysis the analyte was extracted from the microsomes by a protein precipitation method as described previously. The concentrations of all the drugs were quantified using Ab Sciex Analyst® software. Microsomal kinetic data were analyzed using Michaelis-Menten and exponential decay equations. CYP3A4 inhibition data were evaluated by fitting the values to dose-response inhibition and calculated IC50 values were reported. All graphs were plotted and two-tailed t-tests were performed wherever appropriate using GraphPad Prism 5.01 (GraphPad, San Diego, CA). Significant differences between more than two groups analyzed with one-way ANOVA followed by Dunnett's multiple comparison tests using IBM […] version 20. […] To study the influence of alcohol consumption on EVG metabolism, 20 mM ethanol (physiological concentration in moderate drinker) was used to treat human liver microsomes. […] EVG degradation/metabolism at 4 μM followed a pseudo-first-order kinetic. Therefore, we fit the data to an exponential one phase decay equation to determine the apparent half-life (t1/2) and rate constant K.

in vitro = in vitro ADME, human; conditions: human, microsomes
Description: as §1

[1] = With Ethanol, three values per group

SMILES: COc1cc2c(cc1Cc1cccc(Cl)c1F)c(=O)c(C(=O)O)cn2[C@H](CO)C(C)C [EVG, Elvitegravir]
- IC50 (CYP3A): 63 µM
- CYP3A4 activity (Fig 5 data) (human recombinant CYP3A4; EVG 2.5 uM): 77.957
- CYP3A4 activity (Fig 5 data) (human recombinant CYP3A4; EVG 5 uM): 63.9794
- CYP3A4 activity (Fig 5 data) (human recombinant CYP3A4; EVG 7.5 uM): 59.992
- CYP3A4 activity (Fig 5 data) (human recombinant CYP3A4; EVG 10 uM): 55.6409
- CYP3A4 activity (Fig 5 data) (human recombinant CYP3A4; EVG 25 uM): 40.6332
- CYP3A4 activity (Fig 5 data) (human recombinant CYP3A4; EVG 50 uM): 32.8987
- CYP3A4 activity (Fig 5 data) (human recombinant CYP3A4; EVG 75 uM): 28.0321
- CYP3A4 activity (Fig 5 data) (human recombinant CYP3A4; EVG 100 uM): 18.7817
- IC50 (human recombinant CYP3A4; EVG with ethanol at 20 mM): 17.5 ± 1.5 µM
- IC50 (human recombinant CYP3A4; EtOH 20 mM, COBI at concentration matching EVG unless 0.04 μM stated): 13 µM and 13.1 µM
- IC50 (human recombinant CYP3A4; [1]): 19 µM and 16.5 µM
- increase in the IC50 by ethanol (human recombinant CYP3A4; ethanol at 20 mM compared to EVG alone): 34%
- Rate Constant 'K' (human liver microsomes; [1]): 0.05
- EVG remaining (human liver microsomes; 0 h): 100 % of control
- EVG remaining (human liver microsomes; 2.5 min): 96.6 % of control
- EVG remaining (human liver microsomes; 5 min): 93.5 % of control
- EVG remaining (human liver microsomes; 10 min): 77.8 % of control
- EVG remaining (human liver microsomes; 0.25 h): 63.6 % of control
- EVG remaining (human liver microsomes; 20 min): 45.2 % of control
- EVG remaining (human liver microsomes; 0.5 h): 30.4 % of control
- EVG remaining (human liver microsomes; 1 h): 14.2 % of control
- half-life at 4 μM (in vitro; pH 7.4, Half-life): 12.1 min
- half-life at 4 μM (in vitro; pH 7.4, Half-life (minutes)): 17 ± 1 min
